Results: publication PMC9400670, “Establishing the selective phospholipid membrane coordination, permeation and lysis properties for a series of ‘druggable’ supramolecular self-associating antimicrobial amphiphiles” (Chemical Science, 2022)
Values after ≈ are worked out from the molar mass of the structure shown.

Legend:
[1] = system: MRSA USA300; conditions: n = 3, 0.5 McFarland standard, after 900 min, number in bracket = efficacy rank; cited from earlier work
[2] = system: calcein loaded phospholipid vesicles (PC, PG, PE-PG mix, E. coli total, E. coli polar); assay: Synthetic phospholipid vesicle lysis (calcein leakage) assay; conditions: SSA 1.5 mM; thirty seconds after SSA addition; five vesicle types; in words
Method: Here, samples of phospholipid vesicles containing the fluorescent dye calcein were prepared. At internal vesicle concentrations, this dye undergoes self-quenching. […] The increase in fluorescence output is proportional to the % of vesicle lysis observed upon the addition of SSAs 1–14, when calibrated against a solution of vesicles know to have undergone 100% lysis, see Fig. 5.
Fig. 5 The average (n = 3) percentage lysis (%) of vesicles (30 μM) composed of five different lipid compositions (Table 2), with an internal calcein concentration of 70 mM at 298 K. The % vesicle lysis was calculated through observation of increasing fluorescence emission (λem = 515 nm), following the addition of SSAs […] (1.5 mM) in a H2O/EtOH 95 : 5 solution after: (a) 30 s and; (b) 15 min. Triton X-100 (1%) was used as a positive control for 100% vesicle lysis. Data normalised to the addition of a H2O/EtOH 95 : 5 solution. Red = PC, yellow = PG, green = PE-PG mix, blue = E. coli total, pink = E. coli polar. Error = standard error.
Section 2: General Methods […]
Preparation of vesicles: All lipids were purchased as powder stocks from Avanti Polar Lipids. Lipid vesicles were prepared according to standard procedures.1 Each phospholipid was dissolved in chloroform (~ 10 mL) and the solvent was removed under reduced pressure. The thin film of dried lipid was further dried in vacuo for at least 2 hours. Lipid films were resuspended in the desired buffer and subjected to 9 freeze-thaw cycles in liquid nitrogen and extruded 20 times through a 200 nm […]
Preparation of calcein loaded vesicles: Lipid films were resuspended in buffer A (70 mM calcein, 10 mM TRIS pH 8.5, 0.5 mM EDTA, 110 mM NaCl, pH adjusted to 6-7) and subjected to 9 freeze-thaw cycles in liquid nitrogen and extruded 20 times through a 200 nm polycarbonate membrane. The suspension was run down a size exclusion column packed with sephadex G-50 using buffer B (10 mM TRIS pH 8.5, 0.5 mM EDTA, 110 mM NaCl). The hydrodynamic dimeter of the lipids was monitored using an Anton Paar LitesizerTM 500 to ensure the separation of free and entrapped calcein.
Phospholipid concentration was adjusted to 30 µM for vesicle leakage experiments.
Vesicle leakage assay: Black bottom 96-well plates were prepared with the appropriate lipid solution (100 µL, 30 µM) and desired SSA solution (100 µL) prepared in H2O/EtOH 95: 5. A solution of 1 % Triton X-100 (16) was used for a 100 % lysis control and a H2O/EtOH 95: 5 solution was used as a 0 % lysis control. Fluorescent measurements were taken at 25 °C using an excitation value of 495 nm and an optimised gain of 983. Data were acquired in endpoint mode. All experiments were repeated in triplicate to ensure experimental reproducibility. […]
Data

[3] = system: MRSA USA300; assay: MIC50 determination and initial screening from OD600 growth curves, MRSA USA300; assay type: cell-based, Staphylococcus aureus; conditions: Staphylococcus aureus, 15 h, Table S3, conversion of the mM values of Table 1; MRSA USA300; after 900 mins
Source text: (§1) The antimicrobial activity of SSAs 1–14 was established against both a model Gram-positive, clinically relevant methicillin resistant Staphylococcus aureus (MRSA), and a model Gram-negative, E. coli bacteria, Table 1. Here MIC50 values are given in mM to enable the derivation of molecular structure: antimicrobial efficacy: physical property relationships. […]
(§2) Data were acquired in endpoint mode. […]
(§3) Section 3: Microbial Methods
(§4) These methods were taken directly from UK Health and Security Office (UKHSA) standard operating […]
(§5) Preparation of Luria Broth media (LB): Yeast extract (5 g), tryptone (10 g) and sodium chloride (10 g) were dissolved in dH₂O (1 L) then divided into bottles and autoclaved.
(§6) Preparation of Luria Broth (LB) agar plates: Agar (6 g) was added to LB (400 mL) and autoclaved. Once cool, the LB agar was poured into sterile petri dishes under sterile conditions and allowed to set. LB plates were stored at 4 °C until use.
(§7) Preparation of bacterial plates: Sterile LB agar plates were streaked using Escherichia coli DH10B or USA300 Methicillin-Resistant Staphylococcus aureus then incubated at 37 °C overnight.
(§8) Preparation of Inoculum: An initial culture was made up by inoculating LB media (5 mL) with a single colony of bacteria under sterile conditions and incubated at 37 °C with shaking overnight. The following day, overnight bacterial cultures were subcultured into fresh LB medium to a starting OD600 […]
(§9) Preparation of 96 well microplate for screening: 20 mM solutions of each compound to be tested were made up using 5 % ethanol. The 1:100 cell suspension (150 µL) was pipetted into the wells and SSA compound solutions (30 µL) were added into each well. The final screening concentration for each compound was 3.3 mM in the well. These were incubated for 20 hours in a plate reader, with optical density readings being taken at 600 nm every 15 minutes. Optical density readings were plotted against time to produce growth curves. […]
(§10) individual wells under sterile conditions. Compounds (30 µL) were added to the wells to equal a total volume of 180 µL in the wells. Six repeats of each concentration for each compound were created each plate. The plates were sealed using parafilm, then incubated at 37°C in a microplate reader for 18-25 hours. Optical density readings were taken at 600 nm every 15 min. Data was used to generate […]
(§11) Calculation of MIC50: Growth curves were plotted using OD600 optical density readings in Microsoft ® Excel ® 2013. OD600 optical density readings 900 minutes from the start of each of these growth cultures for each concentration of compound were plotted in Origin ® 2015. The resultant curve was normalized and fitted using the Boltzmann fit to define the MIC50 values for each compound.

[4] = system: E. coli DH10B; conditions: after 900 min, cited from earlier work
[5] = system: E. coli DH10B; assay: MIC50 determination and initial screening from OD600 growth curves, E. coli DH10B; assay type: cell-based, Escherichia coli; conditions: Escherichia coli, 15 h; Table S3, conversion of the mM values of Table 1; E. coli DH10B; after 900 mins
Source text: as §1, §2, §3, §4, §5, §6, §7, §8, §9, §10, §11

Compound | MIC50 MRSA [1] | vesicle lysis activity [2] | MIC50 [3] | MIC50 E. coli ([4]; E. coli DH10B, n = 3, 0.5 McFarland standard, number in bracket = efficacy rank) | MIC50 [5] | initial antimicrobial screening, inhibition of growth, E. coli ([4]; 3.3 mM)
CCCCNC(=S)NCS(=O)(=O)O [SSA 14] | 3.07(9) mM | almost complete loss of any vesicle lysis activity | 1440 µg/mL (≈ 6.34 mM) | 6.03(9) mM | 2820 µg/mL (≈ 12.5 mM) | 
CCCCNC(=O)NCS(=O)(=O)O [SSA 13] | 4.41(10) mM | almost complete loss of any vesicle lysis activity | 1990 µg/mL (≈ 9.47 mM) |  |  | ^c (SSA did not pass initial antimicrobial screening, exhibited <10% inhibition of growth at 3.3 mM after 900 min and therefore excluded from further study)
